Data as given in patent US7317028B2, “Cell differentiation inducer” (Schering Aktiengesellschaft, priority 1996, dated 2008).

Assays:
[1] = system: A2780 cells; assay: Test for induction of differentiation in A2780 cells (ALP activity, ALPmin); assay type: cell-based, human; conditions: for minimal effective concentration: Homo sapiens, 72 h, A2780 cells, 3 days incubation, minimum concentration of the drug inducing increase of ALP activity
Procedure, shortened: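 A2780 cells seeded at 15,000/well, test compound added in serial dilution the next day. ALP reaction stopped with 3N NaOH and absorbance read at 405 nm; ALPmin is the lowest concentration raising ALP activity.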

[2] = system: Murine myeloid leukemia cells WEHI-3; assay: Antitumor test, life prolongation in mice inoculated with WEHI-3 cells (T/C); assay type: in vivo, Balb/C mouse; conditions: oral once a day Day 1 to 4 and Day 7 to 11, ratio of survival days to control
Source text: Murine myeloid leukemia cells WEHI-3 (1 to 3×10^6 cells) were intraperitoneally inoculated to a Balb/C mouse, and administration of a test compound was initiated on the next day. The day was Day 1 and subsequently the drug was orally administered once a day in Day 1 to 4 and in Day 7 to 11. Survival days after inoculation were observed, which were used to calculate the ratio of the survival days for the test coompound group to those for the control group (T/C, %). The ratio was used to evaluate a life prolongation effect.

Row | SMILES | differentiation-inducing activity [1] | minimal effective concentration [1] | melting point | T/C ([2]; Dose 32 μmol/kg) | T/C ([2]; Dose 130 μmol/kg)
1 | Nc1ccccc1NC(=O)c1ccc(CNC(=O)COc2cccnc2)cc1 [Example 46, N-(2-aminophenyl)-4-[N-(pyridin-3-yl)oxyacetylaminomethyl]benzamide] | high | 0.1 µM | 154 to 155 °C | 141% | –
2 | Nc1ccccc1NC(=O)c1ccc(CNC(=O)OCc2cncs2)cc1 [Example 63, N-(2-aminophenyl)-4-[N-(thiazol-5-yl)methoxycarbonylaminomethyl]benzamide] | – | 3 µM | 168 to 175 °C | – | –
3 | Nc1ccccc1NC(=O)c1ccc(CNC(=O)c2cc3ncccc3o2)cc1 [Example 38, N-(2-aminophenyl)-4-[N-(furo[3,2-b]pyridin-2-yl)carbonylaminomethyl]benzamide] | – | 3 µM | 191 °C (dec.) | – | –
4 | O=C(Cc1cccnc1)NCc1ccc(C(=O)Nc2ccccc2O)cc1 [Example 42, N-(2-hydroxyphenyl)-4-[N-(pyridin-3-yl)acetylaminomethyl]benzamide] | – | 10 µM | 201 to 202 °C | – | –
5 | Nc1ccccc1NC(=O)c1ccc(NC(=O)COCc2cccnc2)cc1 [Example 130, N-(2-aminophenyl)-4-[(pyridin-3-yl)methoxyacetylamino]benzamide] | – | 0.03 µM | – | – | 189%
6 | Cc1ccc(COC(=O)NCc2ccc(C(=O)Nc3ccccc3N)cc2)cn1 [Example 57, N-(2-aminophenyl)-4-[N-(6-methylpyridin-3-yl)methoxycarbonylaminomethyl]benzamide] | – | 3 µM | 164 to 165 °C | – | –
7 | COc1cccc(C(=O)NCc2ccc(C(=O)Nc3ccccc3N)cc2)c1 [Example 5, N-(2-aminophenyl)-4-[N-(3-methoxybenzoyl)aminomethyl]benzamide] | – | 1 µM | 182 to 185 °C | – | –
8 | Nc1ccccc1NC(=O)c1ccc(NC(=O)CCc2cccnc2)cc1 [Example 112, N-(2-aminophenyl)-4-[[3-(pyridin-3-yl)propanoyl]amino]benzamide] | – | 0.1 µM | 184 to 186 °C | – | –
9 | Nc1ccccc1NC(=O)c1ccc(CCC(=O)NCc2cccnc2)cc1 [Example 97, N-(2-aminophenyl)-4-[2-[N-(3-picolyl)aminocarbonyl]ethyl]benzamide] | – | 0.1 µM | 168 to 170 °C | – | –
10 | Nc1ccccc1NC(=O)c1ccc(NC(=O)COCc2ccccn2)cc1 [Example 126, N-(2-aminophenyl)-4-[N-(pyridin-2-yl)methoxyacetylamino]benzamide] | – | 3 µM | 171 to 173 °C | – | –
11 | Nc1ccccc1NC(=O)c1ccc(CNC(=O)c2ccccc2Cl)cc1 [Example 2, N-(2-aminophenyl)-4-[N-(2-chlorobenzoyl)aminomethyl]benzamide] | – | 3 µM | 201 to 204 °C (dec.) | – | –
12 | Cc1ncccc1C(=O)NCc1ccc(C(=O)Nc2ccccc2N)cc1 [Example 15, N-(2-aminophenyl)-4-[N-(2-methylnicotinoyl)aminomethyl]benzamide] | – | 3 µM | 191 to 194 °C (dec.) | – | –
13 | Nc1ccccc1NC(=O)c1ccc(-n2cc(COc3cccc([N+](=O)[O-])c3)oc2=O)cc1 [Example 141, N-(2-aminophenyl)-4-[5-(3-nitrophenoxy)methyl-1,3-oxazolin-2-on-3-yl]benzamide] | – | 1 µM | 230 °C (dec.) | – | –
14 | Nc1ccccc1NC(=O)c1ccc(CNC(=O)c2ccc(Cl)nc2)cc1 [Example 18, N-(2-aminophenyl)-4-[N-(6-chloronicotinoyl)aminomethyl]benzamide] | – | 3 µM | 205 to 208 °C (dec.) | – | –
15 | Nc1ccccc1NC(=O)c1ccc(NC(=O)CNCc2cccnc2)cc1 [Example 115, N-(2-aminophenyl)-4-[[N-(pyridin-3-yl)methylamino]acetylamino]benzamide] | – | 0.01 µM | 160 °C (dec.) | – | –
16 | Cl.Cl.Nc1ccccc1NC(=O)c1ccc(NC(=O)Cc2cccnc2)cc1 [Example 111, N-(2-aminophenyl)-4-[(pyridin-3-yl)acetylamino]benzamide dihydrochloride] | – | 3 µM | 182 to 189 °C (dec.) | – | –
17 | CC(OCc1cccnc1)C(=O)Nc1ccc(C(=O)Nc2ccccc2N)cc1 (centres unmarked) [Example 131, N-(2-aminophenyl)-4-[N-[2-(pyridin-3-yl)methoxypropionyl]amino]benzamide] | – | 0.3 µM | 144 to 148 °C | – | –
18 | Nc1ccccc1COC(=O)NCc1ccc(C(=O)Nc2ccccc2N)cc1 [Example 71, N-(2-aminophenyl)-4-[N-(2-aminophenyl)methoxycarbonylaminomethyl]benzamide] | – | 10 µM | 149 to 151 °C (dec.) | – | –
19 | Nc1ccc(CC(=O)Nc2ccc(C(=O)Nc3ccccc3N)cc2)cc1 [Example 106, N-(2-aminophenyl)-4-[(4-aminophenylacetyl)amino]benzamide] | – | 1 µM | 219 to 226 °C (dec.) | – | –
20 | Nc1ccccc1NC(=O)c1ccc(NC(=O)Cc2ccc([N+](=O)[O-])cc2)cc1 [Example 104, N-(2-aminophenyl)-4-[(4-nitrophenylacetyl)amino]benzamide] | – | 1 µM | 222 to 226 °C | – | –
21 | Nc1ccccc1NC(=O)c1ccc(CNC(=O)OCc2cccnc2)cc1 [Example 48, N-(2-aminophenyl)-4-[N-(pyridin-3-yl)methoxycarbonylaminomethyl]benzamide] | high | 0.1 µM | – | – | 190%
22 | Nc1ccccc1NC(=O)c1ccc(CNC(=S)OCc2cccnc2)cc1 [Example 88, N-(2-aminophenyl)-4-[N-(pyridin-3-yl)methoxythiocarbonylaminomethyl]benzamide] | – | 0.1 µM | 154 to 156 °C (dec.) | – | –
23 | COc1ccc(C(=O)NCc2ccc(C(=O)Nc3ccccc3N)cc2)cc1 [Example 6, N-(2-aminophenyl)-4-[N-(4-methoxybenzoyl)aminomethyl]benzamide] | – | 1 µM | 149 to 151 °C | – | –
24 | CN(CC(=O)Nc1ccc(C(=O)Nc2ccccc2N)cc1)Cc1cccnc1 [Example 119, N-(2-aminophenyl)-4-[[N-(pyridin-3-yl)methyl-N-methylamino]acetylamino]benzamide] | – | 3 µM | 154 to 155 °C | – | –
25 | Nc1ccccc1NC(=O)c1ccc(CNC(=O)c2ccc3ncccc3c2)cc1 [Example 37, N-(2-aminophenyl)-4-[N-(quinolin-6-yl)carbonylaminomethyl]benzamide] | – | 1 µM | 209 to 210 °C | – | –
